Experiment: Physical stability upon storage
Assay type: physicochemical
Settings: drug substance; room temperature without need for refrigeration

physical stability upon storage: good physical stability
Structure (SMILES): CCCNC(=O)c1cn2c(c1C)C(Nc1cc(C(=O)NC3CC3)ccc1C)=NCN2.Cl [p38 inhibitor]

— US20120035177A1, “TABLET FORMULATION FOR P38 INHIBITOR AND METHOD” (Bristol-Myers Squibb Company, priority 2009, published 2012)
